This is an account of results in ChEMBL document CHEMBL1201862, “PubChem BioAssay data set” (2004).

Calls of active or inactive are those of the source.

A short description of experiment [1]: Luminescence-based cell-based high throughput dose response assay to identify activators of the DAF-12 from the parasite S. stercoralis (ssDAF-12). In kind it is functional.
In experiment [2] the target is T1, Oxysterols receptor LXR-beta (Homo sapiens, UniProt P55055).
T1 sequence (P55055 whole entry): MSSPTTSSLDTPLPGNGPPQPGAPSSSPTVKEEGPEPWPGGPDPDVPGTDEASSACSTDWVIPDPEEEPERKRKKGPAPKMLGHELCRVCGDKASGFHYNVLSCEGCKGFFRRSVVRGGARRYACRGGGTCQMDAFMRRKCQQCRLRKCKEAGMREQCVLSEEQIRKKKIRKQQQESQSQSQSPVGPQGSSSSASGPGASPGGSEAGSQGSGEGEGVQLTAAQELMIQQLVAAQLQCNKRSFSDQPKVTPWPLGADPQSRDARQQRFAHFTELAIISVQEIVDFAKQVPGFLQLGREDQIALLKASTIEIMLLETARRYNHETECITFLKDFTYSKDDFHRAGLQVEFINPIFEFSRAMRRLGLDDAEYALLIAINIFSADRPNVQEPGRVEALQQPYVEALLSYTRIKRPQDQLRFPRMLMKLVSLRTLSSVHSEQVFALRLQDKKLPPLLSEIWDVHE
In words: LXR agonists, Gal4 luciferase reporter, dose response, counter-screen for ssDAF-12 agonist project, cell-based, luminescence, HEK293, S. stercoralis campaign (AID 720737). In kind it is functional. The settings on record: read-out: IC50 (the source's name). Background: In a reporter assay the amount or activity of a reporter protein is the signal.

Experiment [3] has as its target T1, Oxysterols receptor LXR-beta. In kind it is functional, cell-based.
For another experiment, the target named is Transthyretin (Homo sapiens, UniProt P02766). In words: Luminescence-based cell-based high throughput dose response assay to identify activators of Transthyretin (TTR) transcription. In kind it is functional.
A short description of experiment [4]: inhibitors of firefly luciferase expression or activity, dose response, H4 neuroglioma cells, luminescence (AID 1990). The class given is functional, cell-based.
Experiment [5] in a line: Luminescence Cell-Based Dose Response HTS to Identify Inhibitors of 5'UTR Stem-Loop Driven Prion Protein mRNA Translation in H4 Neuroglioblastoma Cells. [Related pubchem assays: 1827 (Project Summary), 1813 (Primary HTS)]. In kind it is functional.
Experiment [6] concerns the target T2, Heat shock factor protein 1 (Mus musculus, UniProt P38532).
T2 sequence (P38532 whole entry): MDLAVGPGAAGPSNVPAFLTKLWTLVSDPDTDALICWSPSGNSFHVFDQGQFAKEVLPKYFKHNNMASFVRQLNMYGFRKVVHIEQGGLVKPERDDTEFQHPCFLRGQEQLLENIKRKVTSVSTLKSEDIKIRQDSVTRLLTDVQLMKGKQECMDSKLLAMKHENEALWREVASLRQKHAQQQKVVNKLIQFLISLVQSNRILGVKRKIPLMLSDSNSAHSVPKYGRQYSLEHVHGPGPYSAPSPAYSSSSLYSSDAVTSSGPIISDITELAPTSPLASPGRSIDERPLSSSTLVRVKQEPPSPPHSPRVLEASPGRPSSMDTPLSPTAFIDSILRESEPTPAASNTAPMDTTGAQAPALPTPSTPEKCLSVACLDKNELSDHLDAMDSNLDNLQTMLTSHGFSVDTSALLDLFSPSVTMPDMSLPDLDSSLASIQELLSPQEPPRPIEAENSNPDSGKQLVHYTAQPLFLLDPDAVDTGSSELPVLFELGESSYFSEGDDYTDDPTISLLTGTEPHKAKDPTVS
In words: inhibition of MG132-induced HSE-luciferase signal, confirmation, cell-based, NIH3T3, luminescence, dose retest (AID 2382).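 Also: NIH3T3 fibroblasts with HSF1-driven luciferase reporter stressed by proteasome inhibitor MG132; luminescence from HSF1-driven luciferase expression after 8 hours of MG132 stress.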 In kind it is functional.

Experiment [7] is described as follows: inhibitors of SNCA 5'UTR-driven reporter translation, confirmation, H4 neuroglioma cells, luminescence (AID 1988). The class given is functional, cell-based.
The nature of the next experiment: cells. The class given is functional, cell-based.
Experiment [8] addresses T3, Nuclear receptor subfamily 0 group B member 1 (Homo sapiens, UniProt P51843).
T3 sequence (P51843 whole entry): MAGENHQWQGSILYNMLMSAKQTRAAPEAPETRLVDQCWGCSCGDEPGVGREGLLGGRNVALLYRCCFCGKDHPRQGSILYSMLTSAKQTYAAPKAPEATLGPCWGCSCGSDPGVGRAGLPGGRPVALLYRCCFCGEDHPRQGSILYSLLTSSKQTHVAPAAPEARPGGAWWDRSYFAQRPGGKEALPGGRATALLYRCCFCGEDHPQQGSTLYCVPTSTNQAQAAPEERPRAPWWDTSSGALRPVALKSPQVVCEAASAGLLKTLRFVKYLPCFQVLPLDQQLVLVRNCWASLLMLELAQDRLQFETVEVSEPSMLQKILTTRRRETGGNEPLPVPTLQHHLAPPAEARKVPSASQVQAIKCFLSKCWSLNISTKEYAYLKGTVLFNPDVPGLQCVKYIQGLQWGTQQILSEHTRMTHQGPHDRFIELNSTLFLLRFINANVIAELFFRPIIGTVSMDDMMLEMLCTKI
In kind it is functional, cell-based.

The nature of experiment [9]: A549 cell cytotoxicity, dose response, cytotoxicity control, plate reader, cherry-pick, antagonist series (AID 743412). The class given is functional, cell-based.
Experiment [10] is described as follows: HepG2 cell cytotoxicity, dose response, cytotoxicity control, plate reader, cherry-pick, antagonist series (AID 743416). In kind it is functional, cell-based.
The nature of experiment [11]: LGR2 antagonists, dose response, cell-based, HEK293, CRE-luciferase reporter, cherry pick, set 2 (AID 743343).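 Also: transfected cells were stimulated with diluted bursicon conditioned medium after compound addition.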 In kind it is functional.
A short description of experiment [12]: MC4R antagonists, dose response, counter-screen for LGR2 antagonist project, cell-based, plate reader, cherry pick (AID 743444).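 Also: transfected HEK 293 cells stimulated with alpha-MSH peptide; potency of inhibitors of the alpha-MSH evoked signal.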 The class given is functional. (In general: The purpose of a counterscreen is to sort out artefacts and off-target activity.)
The nature of experiment [13]: HEK293 cell cytotoxicity, dose response, cytotoxicity control, plate reader, cherry-picked samples (AID 743446). The class given is functional, cell-based.
Experiment [14] concerns the target T2, Heat shock factor protein 1. In words: HSF1 potentiators in luciferase reporter cells, confirmation, cell-based, NIH3T3, luminescence, dose retest (AID 435004).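 Also: stress induced by proteasome inhibitor MG132 added 30 min after compound; luciferase reporter driven by HSF1 response element in NIH3T3 cells; actives raise luminescence as potentiators of the MG132 stress response.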 In kind it is functional.
Experiment [15] addresses Endoplasmic reticulum aminopeptidase 1 (Homo sapiens, UniProt Q9NZ08). In words: ERAP1 aminopeptidase inhibitors, dose response, biochemical, cherry-pick, set 2, plate reader (AID 743314).
Experiment [16] deals with BJ. In words: cytotoxicity toward BJ-TERT fibroblasts, dose response, cell-based, RAS-independent, luminescence (AID 1933). The settings on record: Homo sapiens. In kind it is functional.
Experiment [17] relates to BJ. In words: cells. In kind it is functional, cell-based. Particulars: Homo sapiens.
Experiment [18] in a line: inhibitors of intracellular T. cruzi replication, confirmation, NIH3T3 host cells, beta-gal luminescence (AID 2044).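 Also: intracellular parasites grown in NIH/3T3 mouse fibroblasts as host cells; luminescent beta-galactosidase reporter signal from transgenic T. cruzi replicating inside host cells; inhibitors lower the luminescence signal.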 The class given is functional, cell-based.
Experiment [19] can be described thus: cytotoxicity toward NIH3T3 fibroblasts, dose response, counter-screen, cell-based, ATP luminescence, mouse fibroblasts (AID 2010).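 Also: cells exposed to compound for about 90 hours before reading.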 The class given is functional.
A short description of experiment [20]: cytotoxicity toward DRD oncogenic fibroblasts, dose response, cell-based, non-viral oncogenic, luminescence (AID 1934). In kind it is functional. The settings on record: Homo sapiens.
A short description of experiment [21]: inhibitors of PGC1a acetylation in cells, dose response, cell-based, cherry-picked samples (AID 720514).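 Also: potency may reflect raised or lowered acetylation signal.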 In kind it is functional.
In another experiment the target is Genome polyprotein (dengue virus type 2, UniProt P29990). In words: Dengue-2 NS5 methyltransferase inhibitors, primary screen, biochemical, confirmation dose response (AID 588689). The class given is functional.
Genome polyprotein, sequence (P29990 2492-3391 limits assumed): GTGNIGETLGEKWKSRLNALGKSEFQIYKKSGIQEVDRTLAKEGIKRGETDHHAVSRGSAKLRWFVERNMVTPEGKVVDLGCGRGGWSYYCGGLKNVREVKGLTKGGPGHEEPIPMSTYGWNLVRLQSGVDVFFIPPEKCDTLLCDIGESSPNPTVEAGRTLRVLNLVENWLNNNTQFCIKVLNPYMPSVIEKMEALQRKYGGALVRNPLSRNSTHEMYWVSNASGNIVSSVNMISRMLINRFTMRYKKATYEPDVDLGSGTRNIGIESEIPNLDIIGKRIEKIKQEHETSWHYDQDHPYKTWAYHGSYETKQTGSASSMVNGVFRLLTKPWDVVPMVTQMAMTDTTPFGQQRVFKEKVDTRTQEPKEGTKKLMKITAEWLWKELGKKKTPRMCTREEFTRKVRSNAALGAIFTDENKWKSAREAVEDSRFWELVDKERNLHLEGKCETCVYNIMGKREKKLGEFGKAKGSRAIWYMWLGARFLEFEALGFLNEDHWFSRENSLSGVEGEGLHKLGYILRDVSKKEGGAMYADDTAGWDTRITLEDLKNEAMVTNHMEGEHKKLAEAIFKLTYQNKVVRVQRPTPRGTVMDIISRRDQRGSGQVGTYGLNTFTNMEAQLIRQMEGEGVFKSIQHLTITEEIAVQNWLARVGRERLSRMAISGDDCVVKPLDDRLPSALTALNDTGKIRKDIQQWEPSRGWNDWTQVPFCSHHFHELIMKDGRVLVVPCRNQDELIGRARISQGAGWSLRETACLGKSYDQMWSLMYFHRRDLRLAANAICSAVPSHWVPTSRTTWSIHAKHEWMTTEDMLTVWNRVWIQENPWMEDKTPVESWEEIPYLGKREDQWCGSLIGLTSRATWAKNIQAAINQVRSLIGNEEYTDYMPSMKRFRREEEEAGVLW
In the next experiment the target is Caspase-6 (Homo sapiens, UniProt P55212). In words: human caspase-6 inhibitors, dose response, biochemical, VEID-R110 fluorescence, cherry-pick (AID 720632).
Caspase-6, sequence (P55212 24-179 limits assumed): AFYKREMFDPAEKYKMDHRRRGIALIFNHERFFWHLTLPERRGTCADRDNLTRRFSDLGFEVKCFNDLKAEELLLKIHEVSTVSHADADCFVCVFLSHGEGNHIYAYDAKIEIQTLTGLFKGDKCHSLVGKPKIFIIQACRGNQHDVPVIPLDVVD
Caspase-6, sequence (P55212 194-293 limits assumed): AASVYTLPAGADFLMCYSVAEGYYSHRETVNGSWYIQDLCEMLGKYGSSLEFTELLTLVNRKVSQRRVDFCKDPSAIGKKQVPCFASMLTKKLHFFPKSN
Another experiment deals with T4, Protein Tat (Human immunodeficiency virus type 1 group M subtype B (isolate HXB2)(HIV-1), UniProt P04608).
T4 sequence (P04608 whole entry): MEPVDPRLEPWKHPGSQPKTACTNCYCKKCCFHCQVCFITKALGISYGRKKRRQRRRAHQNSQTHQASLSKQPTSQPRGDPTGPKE
In kind it is functional.

Experiment [22] can be described thus: THP-1 cell cytotoxicity, dose response, cytotoxicity control for Vif-APOBEC3G degradation inhibitor project, THP-1 cells (AID 1117359). In kind it is functional. The settings on record: Human immunodeficiency virus 1, THP-1.
A short description of experiment [23]: inhibitors of Vif binding to APOBEC3G peptide, primary screen, biochemical, TR-FRET, GST-Vif 1-94, biotin-A3G peptide, dose response retest (AID 1117319).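 Also: TR-FRET signal of purified GST-Vif binding a biotinylated A3G peptide; inhibitors lower the FRET signal by blocking Vif and A3G binding.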 In kind it is functional.
A further experiment addresses fMet-Leu-Phe receptor (Homo sapiens, UniProt P21462). In words: FPR ligands, dose response (AID 519). The class given is functional.

fMet-Leu-Phe receptor, sequence (P21462 whole entry): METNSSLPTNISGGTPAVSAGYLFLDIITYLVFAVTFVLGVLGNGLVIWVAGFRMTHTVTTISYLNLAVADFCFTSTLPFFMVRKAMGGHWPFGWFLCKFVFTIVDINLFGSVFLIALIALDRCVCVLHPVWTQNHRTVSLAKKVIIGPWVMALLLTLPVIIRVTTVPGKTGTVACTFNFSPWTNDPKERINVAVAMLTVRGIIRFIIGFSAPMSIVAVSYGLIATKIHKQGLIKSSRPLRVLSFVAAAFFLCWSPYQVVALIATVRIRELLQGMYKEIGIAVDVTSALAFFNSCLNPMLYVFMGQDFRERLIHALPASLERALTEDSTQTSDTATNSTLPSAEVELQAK
Endoplasmic reticulum aminopeptidase 1, sequence (Q9NZ08 whole entry): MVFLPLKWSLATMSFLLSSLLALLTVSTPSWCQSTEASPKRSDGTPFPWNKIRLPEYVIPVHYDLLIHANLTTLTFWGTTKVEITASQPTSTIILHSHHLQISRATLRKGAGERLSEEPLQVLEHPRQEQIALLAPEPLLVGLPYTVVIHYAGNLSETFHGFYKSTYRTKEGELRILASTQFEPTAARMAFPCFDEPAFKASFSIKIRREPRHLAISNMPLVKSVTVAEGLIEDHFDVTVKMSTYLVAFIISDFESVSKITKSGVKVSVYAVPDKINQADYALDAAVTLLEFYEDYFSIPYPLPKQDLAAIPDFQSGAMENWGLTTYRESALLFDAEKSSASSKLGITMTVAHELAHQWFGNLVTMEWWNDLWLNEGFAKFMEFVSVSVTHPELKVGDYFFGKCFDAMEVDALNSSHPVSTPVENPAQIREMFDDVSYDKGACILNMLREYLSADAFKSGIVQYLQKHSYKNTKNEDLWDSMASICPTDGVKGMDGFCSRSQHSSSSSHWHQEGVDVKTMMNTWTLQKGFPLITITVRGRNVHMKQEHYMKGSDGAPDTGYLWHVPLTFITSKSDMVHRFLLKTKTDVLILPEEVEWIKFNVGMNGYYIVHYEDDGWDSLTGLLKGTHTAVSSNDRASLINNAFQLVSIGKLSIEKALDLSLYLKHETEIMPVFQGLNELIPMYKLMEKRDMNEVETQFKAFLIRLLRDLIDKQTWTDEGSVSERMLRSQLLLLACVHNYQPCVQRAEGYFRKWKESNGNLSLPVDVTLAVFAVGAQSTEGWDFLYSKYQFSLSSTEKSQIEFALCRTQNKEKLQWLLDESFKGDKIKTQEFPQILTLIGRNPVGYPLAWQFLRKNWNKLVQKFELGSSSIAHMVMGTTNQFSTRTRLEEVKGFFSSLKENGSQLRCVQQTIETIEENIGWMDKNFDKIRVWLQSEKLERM

For `Clc1ccc(-c2cn3cc(Cl)ccc3n2)cc1`, the IC50 in experiment [1] was > 67.6 µM (inactive). The EC50 in [2] and in experiment [3] was > 67.6 µM (inactive) each time.

Consider `Cn1cc(Br)c(C(=O)N2CCc3ccccc32)n1`, for which the EC50 on Transthyretin is > 167 µM (inactive).

Turning to `CC(=O)c1ccc(NC(=O)c2cnn3ccccc23)cc1`, the EC50 in [4] was 2.12 µM (active); in experiment [5], 1.43 µM (active); in [6], 14.3 µM (active); in experiment [7], 1.68 µM (active). The IC50 (in the experiment “cells”; in experiment [8]) was > 67.5 µM (inactive) each time. The AC50 in experiment [9] was 50.1 µM (active); in experiment [10], > 52 µM (inactive); in [11], 9.16 µM (active); in experiment [12], 11.7 µM (active); in experiment [13], > 52 µM (inactive).

In the case of `O=c1oc2cc(O)ccc2cc1S(=O)(=O)c1ccccc1`, the EC50 in experiment [14] is > 260 µM (inactive). For the same compound, the AC50 in [15] is 1.44 µM (active).

As to `CN1C(=O)C(=Cc2[nH]c3ccccc3c2CCNC(=S)NC2CC2)C(=O)N(C)C1=O`, at Transthyretin, the EC50 is > 167 µM (inactive).

For the compound `N#CC1=C(N)Oc2c(ccc3ccccc23)C1c1ccsc1` (stereo not given), the EC50 in the experiment with BJ [16] was 0.182 µM (inconclusive); in the experiment with BJ [17] it was 0.254 µM (active); in experiment [18] it was 2.63 µM (active); in experiment [19], 0.253 µM (active); in experiment [20] it was 0.221 µM (active). In addition, the AC50 in experiment [21] was 17.7 µM (active).

In the case of `O=C(c1ccccc1NS(=O)(=O)c1ccc([N+](=O)[O-])cc1[N+](=O)[O-])N1O[C@@H]2C=C[C@H]1C2`, the results for the IC50 (on Genome polyprotein; on Protein Tat; in experiment [23]) were 45.4 µM (active), > 100 µM (active) and > 100 µM (active), respectively. For the same compound, the AC50 on Caspase-6 was 9.9 µM (active). The CC50 in [22] was 36.7 µM (active).

For the compound `CCc1ccccc1NC(=O)C(C#N)Cc1cccnc1` (stereo not given), at fMet-Leu-Phe receptor, the Ki was 31.7 µM (inactive).

For orientation: IC50 means the concentration needed to halve the response being measured. Broadly, the AC50 is the midpoint of the concentration-response curve, whichever way the signal moves. By CC50 is commonly meant the concentration giving 50% cytotoxicity. What is called Ki is the dissociation constant of the complex between target and ligand, obtained from inhibition or displacement.
